Data reported in paper PMC5778071, “Development of matrix metalloproteinase-targeted probes for lung inflammation detection with positron emission tomography” (Scientific Reports, 2018).
Several values for one entry are separate records, joined by “and”; a condition that tells them apart may be missing. Identical values can stand only once.

Columns and labels:
[1] = In vivo biodistribution study in Air and CS (COPD model) mice; set-up: species or system BALB/c mice; settings: for Tissue radioactivity, Blood / Tissue radioactivity, Bone / Tissue radioactivity, Heart / Tissue radioactivity, Intestine / Tissue radioactivity, Kidney / Tissue radioactivity, Liver / Tissue radioactivity, Lung / Tissue radioactivity, Muscle / Tissue radioactivity, Pancreas / Tissue radioactivity, Spleen / Tissue radioactivity, Stomach: i.v.
Experimental: The animals were randomly divided into two groups, control air-exposed (Air, n = 18) and cigarette smoke exposed (CS, n = 18) groups. The mice in the CS group were exposed to cigarette smoke for 10 min inside an acrylic box twice a day, 4–5 times a week, for 4 months using 1 cigarette (Peace, Japan Tobacco Inc., Tokyo, Japan) for every exposure following a previous report with slight modifications. The mice in the Air group were identically exposed to air without CS in a similar box. After the CS treatment, the animals were kept under normal warm and clean environmental conditions to allow for recovery and then housed as described above.
Animals from each study group were randomly divided into 3 groups (n = 3 each) for each time point studied. Mice that were intravenously administered ^18F-IPFP (185 kBq/100 μl saline containing 0.1% tween 80) were sacrificed by cervical dislocation at 20, 45, and 90 min, and 5, 45, and 90 min after administration for the Air and CS groups, respectively. Blood was immediately collected from the heart cavity. Tissues were excised, weighed, and counted for radioactivity with an NaI well-type scintillation counter (1470 Wizard; PerkinElmer, Kanagawa, Japan).

[2] = In vivo PET imaging of lung region; set-up: species or system BALB/c mice; settings: 50–60 min after injection
Experimental: PET data were acquired in list mode using a microPET Focus120 apparatus (Siemens), with a spatial resolution of 1.2 mm at the center of the field of view[24]. Animals (n = 2 per group) were placed in a prone position under 1–2% isoflurane anesthesia on a heating pad to maintain body temperature at 36–37 °C during the PET experiments. A transmission […] scan using an external ^68Ge source was acquired before the PET scan for attenuation correction. At the start of the PET scan, intravenous administration of ^18F-IPFP (4.7–8.1 MBq/100 μl saline containing 0.1% tween 80) was initiated for 15 sec followed by a 50–100 μl saline flush for 15 sec. The scan duration was 60 min. Following the PET scan, mice were immediately euthanized with an anesthesia overdose, followed by extraction of the lungs and heart. Extracted organs were placed on the PET bed and scanned for another 10 min. Thereafter, the lungs were frozen for ex vivo autoradiography analysis. Emission images were reconstructed using Fourier rebinning[25] and a maximum likelihood expectation maximization algorithm with a 128 × 128 × 95 matrix size, and a 0.43 × 0.43 × 0.80 mm^3 voxel size. The uptake of the tracer in the regions of interest was converted to the standardized uptake values (SUVs).

[3] = Ex vivo autoradiography of lung sections; type: in vivo, BALB/c mice; settings: after PET scan; for Radioactivity accumulation in lung sections (autoradiography): 20 μm sections
Experimental: Following the PET experiments, the frozen lungs were cut into 20 μm thick sections with a cryomicrotome (Cryotome FSE; ThermoFisher Scientific, Tokyo, Japan). Lung sections at intervals of 100 μm (n = 2 each, 9 positions) were exposed to imaging plates (BAS-SR; GE Healthcare Japan, Tokyo, Japan) for 3 h. To quantify the signals, various concentrations of the administrated ^18F-IPFP dilutions were also plotted and exposed to imaging plates. Autoradiograms were obtained with a Typhoon FLA 7000 scanner, (GE Healthcare Japan), and the resulting images were analyzed by ImageQuant TL (GE Healthcare Japan). Radioactivities per area were determined by image analysis of the resulting autoradiograms and expressed as percent injected dose (%ID) per section calculated using the quantitation curve obtained by the ^18F-IPFP dilutions.

[4] = Air group, 20 min after injection
[5] = Air group, 45 min after injection
[6] = Air group, 90 min after injection
[7] = CS group, 5 min after injection
[8] = CS group, 45 min after injection
[9] = CS group, 90 min after injection

CC(C)C[C@H](CC(=O)NO)C(=O)N[C@@H](Cc1ccc(I)cc1)C(=O)N[C@@H](CCCCNC(=O)C(C)[18F])C(N)=O (stereo partly shown) [^18F-IPFP]
Radioactivity accumulation in the lungs, CS group compared with Air group ([1]; 90 min after administration): > 4 fold and 4 fold
Tissue radioactivity, Blood [1, 4]: 0.5 ± 0.1 %ID/g
Tissue radioactivity, Bone [1, 4]: 0.4 ± 0.0 %ID/g
Tissue radioactivity, Heart [1, 4]: 0.5 ± 0.1 %ID/g
Tissue radioactivity, Intestine [1, 4]: 10.7 ± 2.2 %ID/g
Tissue radioactivity, Kidney [1, 4]: 37.6 ± 6.4 %ID/g
Tissue radioactivity, Liver [1, 4]: 22.6 ± 0.7 %ID/g
Tissue radioactivity, Lung [1, 4]: 5.3 ± 0.6 %ID/g
Tissue radioactivity, Muscle [1, 4]: 0.3 ± 0.1 %ID/g
Tissue radioactivity, Pancreas [1, 4]: 5.4 ± 0.7 %ID/g
Tissue radioactivity, Spleen [1, 4]: 0.9 ± 0.1 %ID/g
Tissue radioactivity, Stomach [1, 4]: 2.8 ± 2.1 % injected dose
Tissue radioactivity, Blood [1, 5]: 0.6 ± 0.0 %ID/g
Tissue radioactivity, Bone [1, 5]: 0.5 ± 0.1 %ID/g
Tissue radioactivity, Heart [1, 5]: 0.5 ± 0.0 %ID/g
Tissue radioactivity, Intestine [1, 5]: 16.9 ± 3.0 %ID/g
Tissue radioactivity, Kidney [1, 5]: 38.8 ± 4.2 %ID/g
Tissue radioactivity, Liver [1, 5]: 15.2 ± 1.6 %ID/g
Tissue radioactivity, Lung [1, 5]: 2.4 ± 0.4 %ID/g
Tissue radioactivity, Muscle [1, 5]: 0.3 ± 0.2 %ID/g
Tissue radioactivity, Pancreas [1, 5]: 4.5 ± 0.8 %ID/g
Tissue radioactivity, Spleen [1, 5]: 0.8 ± 0.1 %ID/g
Tissue radioactivity, Stomach [1, 5]: 1.5 ± 1.0 % injected dose
Tissue radioactivity, Blood [1, 6]: 0.7 ± 0.1 %ID/g
Tissue radioactivity, Bone [1, 6]: 0.7 ± 0.2 %ID/g
Tissue radioactivity, Heart [1, 6]: 0.5 ± 0.1 %ID/g
Tissue radioactivity, Intestine [1, 6]: 18.4 ± 2.1 %ID/g
Tissue radioactivity, Kidney [1, 6]: 34.6 ± 3.3 %ID/g
Tissue radioactivity, Liver [1, 6]: 11.2 ± 1.1 %ID/g
Tissue radioactivity, Lung [1, 6]: 1.3 ± 0.1 %ID/g
Tissue radioactivity, Muscle [1, 6]: 0.4 ± 0.1 %ID/g
Tissue radioactivity, Pancreas [1, 6]: 3.9 ± 0.6 %ID/g
Tissue radioactivity, Spleen [1, 6]: 0.8 ± 0.2 %ID/g
Tissue radioactivity, Stomach [1, 6]: 0.5 ± 0.2 % injected dose
Radioactivity accumulation in the lungs relative to heart, muscle and blood ([1]; COPD mice, 90 min after administration): 10 fold
Tissue radioactivity, Blood [1, 7]: 0.8 ± 0.1 %ID/g
Tissue radioactivity, Bone [1, 7]: 1.0 ± 0.3 %ID/g
Tissue radioactivity, Heart [1, 7]: 0.9 ± 0.3 %ID/g
Tissue radioactivity, Intestine [1, 7]: 6.0 ± 0.6 %ID/g
Tissue radioactivity, Kidney [1, 7]: 34.1 ± 3.6 %ID/g
Tissue radioactivity, Liver [1, 7]: 30.8 ± 4.6 %ID/g
Tissue radioactivity, Lung [1, 7]: 9.4 ± 1.9 %ID/g
Tissue radioactivity, Muscle [1, 7]: 0.6 ± 0.1 %ID/g
Tissue radioactivity, Pancreas [1, 7]: 6.2 ± 0.3 %ID/g
Tissue radioactivity, Spleen [1, 7]: 2.5 ± 0.4 %ID/g
Tissue radioactivity, Stomach [1, 7]: 1.0 ± 0.4 % injected dose
Radioactivity accumulation in the lungs relative to surrounding tissues (heart, blood, muscle) [1, 8]: > 10 fold
Tissue radioactivity, Blood [1, 8]: 0.5 ± 0.1 %ID/g
Tissue radioactivity, Bone [1, 8]: 0.6 ± 0.1 %ID/g
Tissue radioactivity, Heart [1, 8]: 0.5 ± 0.1 %ID/g
Tissue radioactivity, Intestine [1, 8]: 13.1 ± 0.3 %ID/g
Tissue radioactivity, Kidney [1, 8]: 31.7 ± 2.2 %ID/g
Tissue radioactivity, Liver [1, 8]: 17.4 ± 4.1 %ID/g
Tissue radioactivity, Lung [1, 8]: 5.6 ± 0.5 %ID/g
Tissue radioactivity, Muscle [1, 8]: 0.3 ± 0.1 %ID/g
Tissue radioactivity, Pancreas [1, 8]: 4.8 ± 0.6 %ID/g
Tissue radioactivity, Spleen [1, 8]: 1.2 ± 0.2 %ID/g
Tissue radioactivity, Stomach [1, 8]: 2.2 ± 0.2 % injected dose
Tissue radioactivity, Blood [1, 9]: 0.6 ± 0.1 %ID/g
Tissue radioactivity, Bone [1, 9]: 0.8 ± 0.2 %ID/g
Tissue radioactivity, Heart [1, 9]: 0.6 ± 0.1 %ID/g
Tissue radioactivity, Intestine [1, 9]: 15.7 ± 0.9 %ID/g
Tissue radioactivity, Kidney [1, 9]: 25.4 ± 5.2 %ID/g
Tissue radioactivity, Liver [1, 9]: 12.0 ± 1.0 %ID/g
Tissue radioactivity, Lung [1, 9]: 6.3 ± 0.3 %ID/g
Tissue radioactivity, Muscle [1, 9]: 0.3 ± 0.1 %ID/g
Tissue radioactivity, Pancreas [1, 9]: 3.9 ± 0.4 %ID/g
Tissue radioactivity, Spleen [1, 9]: 1.3 ± 0.2 %ID/g
Tissue radioactivity, Stomach [1, 9]: 1.4 ± 0.5 % injected dose
accumulation ratio of lung to liver ([1]; mouse, in vivo): > 0.5
Radioactivity uptake in the bone ([1]; over the time window, suggests absence of defluorination): low
SUV in the lung regions (PET) ([2]; Air group): 0.17
SUV in the lung regions (PET) ([2]; CS group): 0.22
Radioactivity accumulation in lung sections (autoradiography) ([3]; Air group): 16.2 ± 2.0 × 10^−4 %ID/section
Radioactivity accumulation in lung sections (autoradiography) ([3]; CS group): 30.0 ± 3.0 × 10^−4 %ID/section
Radioactivity accumulation in lung sections, CS group vs Air group (autoradiography) [3]: 2 fold
